Earlier results in patent publication US20050008656A1, “Compositions and methods for an orally administered inhibitor of biting insects” (priority 2003, published 2005).

How the values were obtained:
[1] = in vivo
[2] = in vivo; remark: listed apart in the source
biting insects = details: ingested

C/C=C/C=C/C(=O)O [Sorbic acid]
toxicity (in words) [1]: non-toxic even when taken in large quantities

CCN(CC)C(=O)c1cccc(C)c1 [DEET, N, N-diethyl-3-methylbenzamide, reference compound]
toxicity (in words) [1]: toxicity, including encephalopathy and seizures

O=C(O)CCCC[C@@H]1SC[C@@H]2NC(=O)N[C@@H]21 [Biotin]
toxicity (in words) [1]: No toxic levels are known

Cyanocobalamin [B12]
time needed to be absorbed [2]: ~3 h

C[N+](C)(C)CCO [choline]
maximum level set for safety [1]: 3.5 g/day

O[C@H]1[C@H](O)[C@@H](O)[C@H](O)[C@@H](O)[C@H]1O [inositol]
toxicity (in words) [1]: No toxic effects known

CC1CCC(C(C)(C)O)C(O)C1 (stereo not shown) [PMD, p-menthane-3,8-diol, reference compound]
eye irritation [1]: significant eye irritation

O=C(O)c1cccnc1 [Nicotinic acid]
dose above which flushing by dilating the blood vessels occurs [1]: > 200 mg

Cc1ncc(C[n+]2csc(CCO)c2C)c(N)n1 [thiamine]
effectiveness at inhibiting insects from biting (biting insects): not effective

Cc1ncc(CO)c(CO)c1O [Vitamin B6, Pyridoxine]
dosage above which neurological damage may be caused [1]: > 2,000 mg per day
